Consider 1 molecule from patent EP0470144B1, “BETA-HYDROXAMATE D-ASPARTIC ACID FOR TREATMENT OF VIRAL INFECTIONS AND TUMOURS” (priority 1989, dated 1990).

Molecules are shown by their SMILES.

Data set [1] concerns leucémie L1210. In words: Antitumour activity in the L1210 leukaemia model, survival. The class given is in vivo, souris B6D2F1/J. Conditions: for Nombre d'animaux survivants: at 30 days. An excerpt:
L'activité antitumorale du DAH et du LAH a été étudiée sur le modèle de leucémie L1210. Les cellules leucémiques L1210 sont maintenues par passages intrapéritonéaux dans la souris B6D2F1/J mâle. […] La durée d'observation est de 30 jours.

A short description of data set [2]: LD50 comparison of DAH and LAH. The note with it: in vivo.

In the case of `N[C@@H](CC(=O)NO)C(=O)O` [LAH, L-aspartique acide β hydroxamate, reference compound], the T/Cx100 in data set [1] (1,5 g/kg x4/j, day 1) is reported as 50%; in data set [1] (1 g/kg x4/j, days 1,2), 65%. The “Nombre d'animaux survivants” value is listed as 0/5 in data set [1] (1,5 g/kg x4/j, day 1) and 0/5 in data set [1] (1 g/kg x4/j, days 1,2). The activité antitumorale entry in data set [1] (lighter protocol than for DAH) was “on n'a pas observé d'activité antitumorale”. Besides, the toxicité entry in data set [1] (lighter protocol, treated animals died before the control group) was “toxicité très importante”; in data set [1] (same dosage conditions as DAH (1 g/kg, 4 times a day, 3 days)), “très toxique”. The “DL 50 %” value in data set [2] is on record as 2,5 g/kg.
